This assay deals with TNAP (Homo sapiens (Human), UniProt P05186). Description: TNAP (PPi) inhibition assay, pyrophosphate as substrate. The class given is biochemical. The procedure, abridged:
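Secreted epitope-tagged human TNAP from transiently transfected COS-1 cells, dialyzed to remove phosphate. Inhibitors tested kinetically at pH 7.4 with PPi as substrate; released phosphate quantified colorimetrically with Biomol Green reagent.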

The term IC50 denotes the concentration at which inhibition is half-maximal. A low value points to higher potency. Consider `CCOC(=O)c1cncc(NS(=O)(=O)c2cc(OC)ccc2OC)c1` [Example IV-12, Ethyl 5-(2,5-dimethoxyphenylsulfonamido)nicotinate], for which the IC50 was below 100 nM.

In the case of `CCCOC(=O)c1cncc(NS(=O)(=O)c2cc(OC)ccc2OC)c1` [Example IV-13, Propyl 5-(2,5-dimethoxyphenylsulfonamido)nicotinate], the IC50 is below 100 nM.

In turn, `COc1ccc(OC)c(S(=O)(=O)Nc2cncc(C(=O)OC3CCCCC3)c2)c1` [Example IV-14, Cyclohexyl 5-(2,5-dimethoxyphenylsulfonamido)nicotinate] registered an IC50 below 100 nM.

`COc1ccc(OC)c(S(=O)(=O)Nc2cncc(C(=O)Oc3ccccc3)c2)c1` [Example IV-15, Phenyl 5-(2,5-dimethoxyphenylsulfonamido)nicotinate] had an IC50 below 100 nM.

Turning to `CNC(=O)c1cncc(NS(=O)(=O)c2cc(Br)ccc2OC)c1` [Example IV-16, 5-(5-Bromo-2-methoxyphenylsulfonamido)-N-methylnicotinamide], the IC50 lay within 100 to 1000 nM.

`CCNC(=O)c1cncc(NS(=O)(=O)c2cc(Br)ccc2OC)c1` [Example IV-18, 5-(5-Bromo-2-methoxyphenylsulfonamido)-N-ethylnicotinamide]: the IC50 fell in the range of 100 to 1000 nM.

Molecule `CCCNC(=O)c1cncc(NS(=O)(=O)c2cc(Br)ccc2OC)c1` [Example IV-19, 5-(5-Bromo-2-methoxyphenylsulfonamido)-N-propylnicotinamide] yielded an IC50 of 100 to 1000 nM.

As to `COc1ccc(Br)cc1S(=O)(=O)Nc1cncc(C(=O)NC2CCCCC2)c1` [Example IV-20, 5-(5-Bromo-2-methoxyphenylsulfonamido)-N-cyclohexylnicotinamide], the IC50 was below 100 nM.

In turn, `COCCNC(=O)c1cncc(NS(=O)(=O)c2cc(Br)ccc2OC)c1` [Example IV-21, 5-(5-Bromo-2-methoxyphenylsulfonamido)-N-(2-methoxyethyl)nicotinamide] came in with an IC50 of 100 to 1000 nM.

`COc1ccc(Br)cc1S(=O)(=O)Nc1cncc(C(=O)NCCN(C)C)c1` [Example IV-22, 5-(5-Bromo-2-methoxyphenylsulfonamido)-N-(2-(dimethylamino)ethyl)nicotinamide] registered an IC50 of 100 to 1000 nM.

The molecule `COc1ccc(Br)cc1S(=O)(=O)Nc1cncc(C(=O)Nc2ccccc2)c1` [Example IV-23, 5-(5-Bromo-2-methoxyphenylsulfonamido)-N-phenylnicotinamide] returned an IC50 of 100 to 1000 nM.

`COc1ccc(Br)cc1S(=O)(=O)Nc1cncc(C(=O)N2CCOCC2)c1` [Example IV-24, 5-Bromo-2-methoxy-N-(5-(morpholine-4-carbonyl)pyridin-3-yl)benzenesulfonamide] returned an IC50 above 1000 nM.

For the molecule `COc1ccc(Br)cc1S(=O)(=O)Nc1cncc(C(=O)N2CCN(C)CC2)c1` [Example IV-25, 5-Bromo-2-methoxy-N-(5-(4-methylpiperazine-1-carbonyl)pyridin-3-yl)benzenesulfonamide], the IC50 is 100 to 1000 nM.

As to `COc1ccc(Cl)cc1S(=O)(=O)Nc1cncc(C(N)=O)c1` [Example IV-26, 5-(5-Chloro-2-methoxyphenylsulfonamido)nicotinamide], the IC50 was below 100 nM.

For the molecule `CCCNC(=O)c1cncc(NS(=O)(=O)c2cc(Cl)ccc2OC)c1` [Example IV-29, 5-(5-Chloro-2-methoxyphenylsulfonamido)-N-propylnicotinamide], the IC50 was below 100 nM.

For the molecule `COc1ccc(Cl)cc1S(=O)(=O)Nc1cncc(C(=O)NC2CCCCC2)c1` [Example IV-30, 5-(5-Chloro-2-methoxyphenylsulfonamido)-N-cyclohexylnicotinamide], the IC50 was below 100 nM.

The molecule `COCCNC(=O)c1cncc(NS(=O)(=O)c2cc(Cl)ccc2OC)c1` [Example IV-32, 5-(5-Chloro-2-methyoxyphenylsulfonamido)-N-(2-methoxyethyl)nicotinamide] gave an IC50 of 100 to 1000 nM.

Molecule `COc1ccc(Cl)cc1S(=O)(=O)Nc1cncc(C(=O)NCCN(C)C)c1` [Example IV-33, 5-(5-Chloro-2-methoxyphenylsulfonamido)-N-(2-(dimethylamino)ethyl)nicotinamide] had an IC50 of 100 to 1000 nM.
